Experimental data published in US20230123334A1, “AMINO LIPID COMPOUND, PREPARATION METHOD THEREFOR, AND APPLICATION THEREOF” (SHENZHEN SHENXIN BIOTECHNOLOGY CO., LTD., priority 2020, published 2023).

test system: HEK293 cells; test: Preliminary screening as DNA vectors, GFP transfection of HEK293 cells; assay type: cell-based; settings: amino lipid/DOPE liposome with 75 ng plasmid DNA (psin-EGFP-IRES-Puro); number of GFP-expressing cells divided by total nuclei (Hoechst)
Summary of the method: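 HEK293 cells in DMEM/10% FBS transfected with 75 ng EGFP plasmid per well complexed with amino lipid/DOPE liposomes in pH 5.6 sodium acetate. Hoechst nuclear stain added 20-24 h post-transfection, then cells cultured another 20-24 h. Confocal imaging gives GFP-positive cells as % of total nuclei.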

SMILES | Absolute DNA transfection efficiency in HEK293 cells [%]
CCCCCCCCCCCCCNc1nc(NCC2CCN(C)CC2)nc(SCCCCCCCCCC)n1 [S10N13 D10] | 3.2
CCCCCCCCCCCCCCCNc1nc(NCCN(C)C)nc(SCCCCCCCCCC)n1 [S10N15 D1] | 4.8
CCCCCCCCCCCCCCCNc1nc(NCCN2CCOCC2)nc(SCCCCCCCCCC)n1 [S10N15 D2] | 1.4
CCCCCCCCCCCCCCCNc1nc(NCCN2CCCC2)nc(SCCCCCCCCCC)n1 [S10N15 D3] | 11.5
CCCCCCCCCCCCCCCNc1nc(NCCN2CCCCC2)nc(SCCCCCCCCCC)n1 [S10N15 D4] | 4.1
CCCCCCCCCCCCCCCNc1nc(NCCN2CCN(C)CC2)nc(SCCCCCCCCCC)n1 [S10N15 D5] | 3.2
CCCCCCCCCCCCCCCNc1nc(NCCCN(C)C)nc(SCCCCCCCCCC)n1 [S10N15 D6] | 9.1
CCCCCCCCCCCCCCCNc1nc(NCCN(CC)CC)nc(SCCCCCCCCCC)n1 [S10N15 D7] | 1.7
CCCCCCCCCCCCCCCNc1nc(NCCCN2CCOCC2)nc(SCCCCCCCCCC)n1 [S10N15 D8] | 5.1
CCCCCCCCCCCCCCCNc1nc(NCCCN2CCN(C)CC2)nc(SCCCCCCCCCC)n1 [S10N15 D9] | 4.1
CCCCCCCCCCCCCCCNc1nc(NCC2CCN(C)CC2)nc(SCCCCCCCCCC)n1 [S10N15 D10] | 6.9
CCCCCCCCCCCCCCCCNc1nc(NCCN(C)C)nc(SCCCCCCCCCC)n1 [S10N16 D1] | 7.8
CCCCCCCCCCCCCCCCNc1nc(NCCN2CCOCC2)nc(SCCCCCCCCCC)n1 [S10N16 D2] | 1.2
CCCCCCCCCCCCCCCCNc1nc(NCCN2CCCC2)nc(SCCCCCCCCCC)n1 [S10N16 D3] | 8.8
CCCCCCCCCCCCCCCCNc1nc(NCCN2CCCCC2)nc(SCCCCCCCCCC)n1 [S10N16 D4] | 4.4
CCCCCCCCCCCCCCCCNc1nc(NCCN2CCN(C)CC2)nc(SCCCCCCCCCC)n1 [S10N16 D5] | 3.1
CCCCCCCCCCCCCCCCNc1nc(NCCCN(C)C)nc(SCCCCCCCCCC)n1 [S10N16 D6] | 13.6
CCCCCCCCCCCCCCCCNc1nc(NCCN(CC)CC)nc(SCCCCCCCCCC)n1 [S10N16 D7] | 4.8
CCCCCCCCCCCCCCCCNc1nc(NCCCN2CCOCC2)nc(SCCCCCCCCCC)n1 [S10N16 D8] | 3.0
CCCCCCCCCCCCCCCCNc1nc(NCCCN2CCN(C)CC2)nc(SCCCCCCCCCC)n1 [S10N16 D9] | 5.0
CCCCCCCCCCCCCCCCNc1nc(NCC2CCN(C)CC2)nc(SCCCCCCCCCC)n1 [S10N16 D10] | 8.7
CCCCCCCCCCCCCCCCCCNc1nc(NCCN(C)C)nc(SCCCCCCCCCC)n1 [S10N18 D1] | 9.0
CCCCCCCCCCCCCCCCCCNc1nc(NCCN2CCOCC2)nc(SCCCCCCCCCC)n1 [S10N18 D2] | 2.1
CCCCCCCCCCCCCCCCCCNc1nc(NCCN2CCCC2)nc(SCCCCCCCCCC)n1 [S10N18 D3] | 11.9

SMILES | Absolute DNA transfection efficiency in HEK293 cells [%]
CCCCCCCCCCCCCCCCCCNc1nc(NCCN2CCCCC2)nc(SCCCCCCCCCC)n1 [S10N18 D4] | 4.9
CCCCCCCCCCCCCCCCCCNc1nc(NCCN2CCN(C)CC2)nc(SCCCCCCCCCC)n1 [S10N18 D5] | 1.8
CCCCCCCCCCCCCCCCCCNc1nc(NCCCN(C)C)nc(SCCCCCCCCCC)n1 [S10N18 D6] | 7.8
CCCCCCCCCCCCCCCCCCNc1nc(NCCN(CC)CC)nc(SCCCCCCCCCC)n1 [S10N18 D7] | 4.0
CCCCCCCCCCCCCCCCCCNc1nc(NCCCN2CCOCC2)nc(SCCCCCCCCCC)n1 [S10N18 D8] | 0.3
CCCCCCCCCCCCCCCCCCNc1nc(NCCCN2CCN(C)CC2)nc(SCCCCCCCCCC)n1 [S10N18 D9] | 3.3
CCCCCCCCCCCCCCCCCCNc1nc(NCC2CCN(C)CC2)nc(SCCCCCCCCCC)n1 [S10N18 D10] | 3.8
CCCCCCCCCCCCN(CCCCCCCCCCCC)c1nc(NCCN(C)C)nc(SCCCCCCCCCC)n1 [S10^2N12 D1] | 3.2
CCCCCCCCCCCCN(CCCCCCCCCCCC)c1nc(NCCN2CCOCC2)nc(SCCCCCCCCCC)n1 [S10^2N12 D2] | 0.0
CCCCCCCCCCCCN(CCCCCCCCCCCC)c1nc(NCCN2CCCC2)nc(SCCCCCCCCCC)n1 [S10^2N12 D3] | 1.1
CCCCCCCCCCCCN(CCCCCCCCCCCC)c1nc(NCCN2CCCCC2)nc(SCCCCCCCCCC)n1 [S10^2N12 D4] | 0.1
CCCCCCCCCCCCN(CCCCCCCCCCCC)c1nc(NCCN2CCN(C)CC2)nc(SCCCCCCCCCC)n1 [S10^2N12 D5] | 0.9
CCCCCCCCCCCCN(CCCCCCCCCCCC)c1nc(NCCCN(C)C)nc(SCCCCCCCCCC)n1 [S10^2N12 D6] | 4.3
CCCCCCCCCCCCN(CCCCCCCCCCCC)c1nc(NCCN(CC)CC)nc(SCCCCCCCCCC)n1 [S10^2N12 D7] | 0.7
CCCCCCCCCCCCN(CCCCCCCCCCCC)c1nc(NCCCN2CCOCC2)nc(SCCCCCCCCCC)n1 [S10^2N12 D8] | 0.0
CCCCCCCCCCCCN(CCCCCCCCCCCC)c1nc(NCCCN2CCN(C)CC2)nc(SCCCCCCCCCC)n1 [S10^2N12 D9] | 0.5
CCCCCCCCCCCCN(CCCCCCCCCCCC)c1nc(NCC2CCN(C)CC2)nc(SCCCCCCCCCC)n1 [S10^2N12 D10] | 3.3
CCCCCCCCCCCSc1nc(NCCCCCC)nc(NCCN(C)C)n1 [S11N6 D1] | 33.1
CCCCCCCCCCCSc1nc(NCCCCCC)nc(NCCN2CCOCC2)n1 [S11N6 D2] | 19.0
CCCCCCCCCCCSc1nc(NCCCCCC)nc(NCCN2CCCC2)n1 [S11N6 D3] | 8.3
CCCCCCCCCCCSc1nc(NCCCCCC)nc(NCCN2CCCCC2)n1 [S11N6 D4] | 29.0
CCCCCCCCCCCSc1nc(NCCCCCC)nc(NCCN2CCN(C)CC2)n1 [S11N6 D5] | 21.6
CCCCCCCCCCCSc1nc(NCCCCCC)nc(NCCCN(C)C)n1 [S11N6 D6] | 29.3
CCCCCCCCCCCSc1nc(NCCCCCC)nc(NCCN(CC)CC)n1 [S11N6 D7] | 25.0

SMILES | Absolute DNA transfection efficiency in HEK293 cells [%]
CCCCCCCCCCCSc1nc(NCCCCCC)nc(NCCCN2CCOCC2)n1 [S11N6 D8] | 13.3
CCCCCCCCCCCSc1nc(NCCCCCC)nc(NCCCN2CCN(C)CC2)n1 [S11N6 D9] | 13.5
CCCCCCCCCCCSc1nc(NCCCCCC)nc(NCC2CCN(C)CC2)n1 [S11N6 D10] | 8.8
CCCCCCCCCCCSc1nc(NCCCCCCC)nc(NCCN(C)C)n1 [S11N7 D1] | 27.6
CCCCCCCCCCCSc1nc(NCCCCCCC)nc(NCCN2CCOCC2)n1 [S11N7 D2] | 11.7
CCCCCCCCCCCSc1nc(NCCCCCCC)nc(NCCN2CCCC2)n1 [S11N7 D3] | 19.4
CCCCCCCCCCCSc1nc(NCCCCCCC)nc(NCCN2CCCCC2)n1 [S11N7 D4] | 4.6
CCCCCCCCCCCSc1nc(NCCCCCCC)nc(NCCN2CCN(C)CC2)n1 [S11N7 D5] | 22.8
CCCCCCCCCCCSc1nc(NCCCCCCC)nc(NCCCN(C)C)n1 [S11N7 D6] | 34.0
CCCCCCCCCCCSc1nc(NCCCCCCC)nc(NCCN(CC)CC)n1 [S11N7 D7] | 11.6
CCCCCCCCCCCSc1nc(NCCCCCCC)nc(NCCCN2CCOCC2)n1 [S11N7 D8] | 13.4
CCCCCCCCCCCSc1nc(NCCCCCCC)nc(NCCCN2CCN(C)CC2)n1 [S11N7 D9] | 16.1
CCCCCCCCCCCSc1nc(NCCCCCCC)nc(NCC2CCN(C)CC2)n1 [S11N7 D10] | 28.5
CCCCCCCCCCCSc1nc(NCCCCCCCC)nc(NCCN(C)C)n1 [S11N8 D1] | 19.8
CCCCCCCCCCCSc1nc(NCCCCCCCC)nc(NCCN2CCOCC2)n1 [S11N8 D2] | 18.6
CCCCCCCCCCCSc1nc(NCCCCCCCC)nc(NCCN2CCCC2)n1 [S11N8 D3] | 26.0
CCCCCCCCCCCSc1nc(NCCCCCCCC)nc(NCCN2CCCCC2)n1 [S11N8 D4] | 5.9
CCCCCCCCCCCSc1nc(NCCCCCCCC)nc(NCCN2CCN(C)CC2)n1 [S11N8 D5] | 19.3
CCCCCCCCCCCSc1nc(NCCCCCCCC)nc(NCCCN(C)C)n1 [S11N8 D6] | 36.9
CCCCCCCCCCCSc1nc(NCCCCCCCC)nc(NCCN(CC)CC)n1 [S11N8 D7] | 10.1
CCCCCCCCCCCSc1nc(NCCCCCCCC)nc(NCCCN2CCOCC2)n1 [S11N8 D8] | 12.2
CCCCCCCCCCCSc1nc(NCCCCCCCC)nc(NCCCN2CCN(C)CC2)n1 [S11N8 D9] | 23.6
CCCCCCCCCCCSc1nc(NCCCCCCCC)nc(NCC2CCN(C)CC2)n1 [S11N8 D10] | 33.4
